Assays:
Assay in all cases: relative viability (nuclei count vs DMSO), 5 days (fraction); higher = more cells survive
BAM7 + Lapatinib = compound: CCOC1=CC=CC=C1N=NC2=C(NN(C2=O)C3=NC(=CS3)C4=CC=CC=C4)C [BAM7] + CS(=O)(=O)CCNCc1ccc(-c2ccc3ncnc(Nc4ccc(OCc5cccc(F)c5)c(Cl)c4)c3c2)o1 [Lapatinib] (partner 2 µM)
Summary of the method: (§1)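 One day after seeding in 1536-well plates, lung cancer cell lines were dosed by pin tool. Dosing was either single-drug or a fixed anchor-drug dose plus five library-drug doses (not always all listed) in √10 steps. After 5 days, nuclei were stained in one fix-and-stain step and counted on 4× images, and relative viability is the nuclei count of treated wells over that of vehicle wells, given as the median of duplicate plates.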

[1] = compound: CCn1c(-c2nonc2N)nc2c(C#CC(C)(C)O)ncc(OC[C@H]3CCCNC3)c21 + CC(=O)c1c(C)c2cnc(Nc3ccc(N4CCNCC4)cn3)nc2n(C2CCCC2)c1=O [Palbociclib] (partner 0.5 µM)
Summary of the method: as §1

[2] = compound: CCn1c(-c2nonc2N)nc2c(C#CC(C)(C)O)ncc(OC[C@H]3CCCNC3)c21 + CCNC(=O)c1noc(-c2cc(C(C)C)c(O)cc2O)c1-c1ccc(CN2CCOCC2)cc1 [Luminespib] (partner 0.01 µM)
Summary of the method: as §1

[3] = compound: CCn1c(-c2nonc2N)nc2c(C#CC(C)(C)O)ncc(OC[C@H]3CCCNC3)c21 + N=C(N)NC(=N)NCCc1ccccc1 [Phenformin] (partner 250 µM)
Summary of the method: as §1

Cell Line	relative viability (BAM7 + Lapatinib; first compound 0.5 µM)	relative viability (BAM7 + Lapatinib; first compound 5 µM)	relative viability (BAM7 + Lapatinib; first compound 15.81 µM)	relative viability (BAM7 + Lapatinib; first compound 50 µM)	relative viability ([1]; first compound 0.01 µM)	relative viability ([1]; first compound 0.03162 µM)	relative viability ([1]; first compound 0.1 µM)	relative viability ([1]; first compound 0.3162 µM)	relative viability ([1]; first compound 1 µM)	relative viability ([2]; first compound 0.01 µM)	relative viability ([2]; first compound 0.03162 µM)	relative viability ([2]; first compound 0.1 µM)	relative viability ([2]; first compound 0.3162 µM)	relative viability ([2]; first compound 1 µM)	relative viability ([3]; first compound 0.01 µM)	relative viability ([3]; first compound 0.03162 µM)	relative viability ([3]; first compound 0.1 µM)	relative viability ([3]; first compound 0.3162 µM)	relative viability ([3]; first compound 1 µM)
EMC-BAC-2	0.943	0.936	0.962	0.968	0.497	0.506	0.504	0.5	0.471	1.18	1.17	1.23	1.18	1.21	0.487	0.491	0.578	0.502	0.52
LK-2	1.22	1.03	1.02	1.11	0.641	0.714	0.556	0.625	0.887	0.168	0.177	–	–	0.14	0.515	0.392	–	–	0.455
NCI-H2126	0.726	0.664	0.743	0.755	0.325	0.319	0.365	0.335	0.377	0.85	0.914	0.892	0.859	0.961	0.565	0.498	0.513	0.496	0.478
NCI-H3122	1.09	1.04	1.04	1.03	0.177	0.18	0.176	0.175	0.219	0.0785	0.0949	0.101	0.072	0.0984	0.401	0.364	0.447	0.389	0.374
NCI-H1975	0.848	0.77	–	0.819	0.484	0.599	0.51	0.544	0.305	0.214	0.166	0.199	0.247	0.304	0.4	0.394	0.393	0.389	0.352
NCI-H1944	0.894	0.998	0.842	0.954	0.359	0.353	0.348	0.314	0.325	0.7	0.786	0.76	0.751	0.733	0.196	0.196	0.207	0.181	0.196
LU99A	0.975	0.788	1.09	1.03	0.37	0.45	0.388	0.406	0.423	0.254	0.21	0.239	0.307	0.248	0.847	0.839	0.774	0.748	0.837
HCC-78	0.74	0.69	0.98	1.11	0.519	0.487	0.454	0.465	0.43	–	–	–	–	–	0.655	0.755	0.711	0.588	0.67
NCI-H1299	0.835	1.01	0.954	0.964	–	–	–	–	–	–	–	–	–	–	–	–	–	–	–
LCLC-103H	–	–	–	–	0.511	0.475	0.503	0.48	0.352	0.936	0.912	0.94	0.735	0.863	0.323	0.355	0.33	0.329	0.327
ChaGo-K-1	–	–	–	–	0.915	0.918	0.939	0.893	0.84	0.564	0.588	0.655	0.535	0.505	0.462	0.508	0.502	0.438	0.469
NCI-H1648	–	–	–	–	0.266	0.272	0.235	0.262	0.317	–	–	–	–	–	–	–	–	–	–
NCI-H596	0.984	1.14	1.01	1.12	–	–	–	–	–	1.06	1.13	1.17	0.935	1.13	0.74	0.7	0.727	0.744	0.761
NCI-H1563	1.01	0.962	0.969	1.05	–	–	–	–	–	0.466	0.641	0.5	0.463	0.505	0.623	0.618	0.701	0.63	0.649
A549	1.08	1.05	1.03	0.924	–	–	–	–	–	–	–	–	–	–	0.197	0.212	0.164	0.17	0.154
NCI-H522	–	–	–	–	0.9	1.12	1.22	0.781	0.916	0.929	1.19	1.14	0.604	1.2	0.636	0.648	0.629	0.576	0.624
NCI-H1623	–	–	–	–	–	–	–	–	–	0.443	0.639	0.486	0.425	0.472	0.604	0.526	0.6	0.56	0.473
SW 900	–	–	–	–	0.558	0.557	0.483	0.649	0.444	0.189	0.185	0.18	0.16	0.162	0.505	0.621	0.671	0.601	0.49
IA-LM	0.766	0.816	0.784	0.748	–	–	–	–	–	–	–	–	–	–	–	–	–	–	–
EBC-1	0.203	0.248	0.233	0.251	–	–	–	–	–	–	–	–	–	–	–	–	–	–	–
